Source: patent US11873291B2, “Quinoline cGAS antagonist compounds” (ImmuneSensor Therapeutics, Inc., priority 2020, dated 2024)
pIC50: −log10 of the molar value.

target: T1, recombinant human cGAS (aa147-522) (Homo sapiens, UniProt Q8N884); test: In vitro inhibition assay of cGAS activity (ATP consumption, KinaseGlo Max); type: biochemical; settings: Table 2, read-out: cGAS Inhibition Results IC50
T1 construct: recombinant human cGAS (aa147-522); His6-SUMO (cleaved yes); made in house; host or cells: E. coli BL21/pLys
Protocol: Expression and Purification of Recombinant cGAS Protein: cDNA encoding full-length or amino acids […] of human cGAS was inserted into a modified pET28a vector containing an in-frame His6-SUMO tag. The E. coli strain BL21/pLys harboring the plasmid was induced with 0.5 mM IPTG at 18° C. overnight. His6-SUMO tag was removed by a SUMO protease digestion following purification of the His6-SUMO-cGAS as described previously (Sun et al, 2013, Science 339, 786).
In vitro inhibition assay of cGAS activity: A 60 μL mixture containing 20 mM Tris-Cl, pH 7.5, 5 mM MgCl2, 0.2 mg/mL BSA, 0.01 mg/mL Herring testis DNA, 6.6 μM ATP, 0.1 mM GTP, 1.5 μg/mL of recombinant human cGAS (aa147-522) and serial dilutions of a test compound in DMSO was added to a 96-well plate and incubated at 37° C. for 20 minutes. At the end of reaction, 40 μL of KinaseGlo Max (Promega) was added and chemiluminescence was measured with a luminometer. Inhibitory effect of a compound is evaluated by plotting percentage of ATP consumption against logarithm of compound concentrations. IC50 value was calculated using GraphPad Prism 8 (GraphPad Software, Inc.).
The letter codes for cGAS IC50 include: A (<2 μM); B (2-30 μM); C (>30 μM).

T1 sequence (Q8N884 147-522): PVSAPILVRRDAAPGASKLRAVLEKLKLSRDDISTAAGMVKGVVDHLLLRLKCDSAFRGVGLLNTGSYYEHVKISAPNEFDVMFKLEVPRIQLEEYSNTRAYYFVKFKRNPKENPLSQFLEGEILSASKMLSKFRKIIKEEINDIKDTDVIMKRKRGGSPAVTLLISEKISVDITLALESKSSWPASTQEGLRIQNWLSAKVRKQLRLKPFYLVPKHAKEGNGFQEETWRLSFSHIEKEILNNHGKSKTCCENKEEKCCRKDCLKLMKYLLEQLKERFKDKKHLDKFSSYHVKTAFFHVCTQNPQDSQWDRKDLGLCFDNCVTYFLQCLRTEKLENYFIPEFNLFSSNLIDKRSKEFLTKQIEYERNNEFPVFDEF

pIC50	Compound
< 4.52	CC(C)c1ccc2c(-c3cn[nH]c3)cc(NCCS(N)(=O)=O)nc2c1 [I-269]
> 5.70	CN(CCC(=O)NCC(N)=O)c1cc(-c2cn[nH]c2)c2ccc(Cl)c(Cl)c2n1 [I-195]
> 5.70	CN(CC(=O)O)c1cc(-n2ccnc2)c2ccc(Cl)cc2n1 [I-167]
< 4.52	CC(C)[C@H](CS(N)(=O)=O)Nc1cc(-n2ccnc2)c2ccc(Cl)c(Cl)c2n1 [I-209]
< 4.52	Clc1ccc2c(-n3ccnc3)cc(OCCCN3CCOCC3)nc2c1 [I-284]
> 5.70	N#CCCO[PH](=O)OCC1CCCN(c2cc(-c3cn[nH]c3)c3ccc(Cl)c(Cl)c3n2)C1 (centres unmarked) [I-396]
> 5.70	CN(CCCO)c1cc(-c2cn[nH]c2)c2ccc(Cl)c(Cl)c2n1 [I-248]
> 5.70	NS(=O)(=O)c1cccc(-c2cc(-n3ccnc3)c3ccc(Cl)c(Cl)c3n2)c1 [I-46]
> 5.70	NS(=O)(=O)CCNc1cc(-c2cn[nH]c2)c2ccc(Cl)c(F)c2n1 [I-262]
4.52 to 5.70	O=C(O)c1ccc(-c2cc(-n3ccnc3)c3ccc(Cl)cc3n2)cc1 [I-4]
> 5.70	CS(=O)(=O)CCC(Nc1cc(-n2ccnc2)c2ccc(Cl)c(Cl)c2n1)C(=O)O (centres unmarked) [I-170, 2-((7,8-Dichloro-4-(1H-imidazol-1-yl)quinolin-2-yl)amino)-4-(methylsulfonyl)butanoic acid]
> 5.70	O=S(=O)(NC1CCCN(c2cc(-n3ccnc3)c3ccc(Cl)cc3n2)C1)C1CC1 (centres unmarked) [I-100]
> 5.70	O[C@H]1CCCN(c2cc(-n3ccnc3)c3ccc(Cl)c(Cl)c3n2)C1 [I-133]
4.52 to 5.70	COC(=O)c1cccc(-c2cc(-n3ccnc3)c3ccc(Cl)cc3n2)c1 [I-5]
> 5.70	O=C(O)[C@@H]1C[C@H](O)CN1c1cc(-c2cn[nH]c2)c2ccc(Cl)c(Cl)c2n1 [I-431]
< 4.52	Clc1ccc2c(-c3ccn[nH]3)cc(-c3ccccc3)nc2c1 [I-68]
< 4.52	C[C@H](Nc1cc(-c2cn[nH]c2)c2ccc(Cl)c(Cl)c2n1)C(=O)O [I-181]
> 5.70	CN(CCC(=O)N1CCCC(O)C1)c1cc(-c2cn[nH]c2)c2ccc(Cl)c(Cl)c2n1 (centres unmarked) [I-198]
> 5.70	OCCNc1cc(-n2ccnc2)c2ccc(Cl)c(Cl)c2n1 [I-239]
< 4.52	COc1c(Cl)ccc2c(NCCO)cc(-c3cn[nH]c3)nc12 [I-401]
4.52 to 5.70	CC(C)(C)OC(=O)NS(=O)(=O)N1CCOC(CNc2cc(-n3ccnc3)c3ccc(Cl)c(Cl)c3n2)C1 (centres unmarked) [I-398, tert-butyl ((2-(((7,8-dichloro-4-(1H-imidazol-1-yl)quinolin-2-yl)amino)methyl)morpholino)sulfonyl)carbamate]
> 5.70	O=C(O)C(Cc1ccc(O)cc1)Nc1cc(-n2ccnc2)c2ccc(Cl)c(Cl)c2n1 (centres unmarked) [I-169]
> 5.70	O=C(O)CCS(=O)(=O)NC[C@@H]1CCCN1c1cc(-n2ccnc2)c2ccc(Cl)c(Cl)c2n1 [I-335]

same assay, conditions: Table 3, read-out: cGAS Inhibition Results IC50

pIC50	Compound
> 5.70	O=C(O)C[C@@H]1CCCN1C(=O)[C@@H]1CCCN1c1cc(-n2ccnc2)c2ccc(Cl)c(Cl)c2n1 [I-553]
< 4.52	O=C(C[C@@H]1CCCN1c1cc(-n2ccnc2)c2ccc(Cl)c(Cl)c2n1)N[C@@H](C(=O)O)c1ccccc1 [I-528]
> 5.70	O=C(O)c1ccc(S(=O)(=O)N[C@@H]2C[C@@H](C(=O)O)N(c3cc(-n4ccnc4)c4ccc(Cl)c(Cl)c4n3)C2)cc1 [I-511]
> 5.70	COCCS(=O)(=O)NCCN(C)c1cc(-n2ccnc2)c2ccc(Cl)c(Cl)c2n1 [I-610]
4.52 to 5.70	COC(=O)C1N(c2cc(-n3ccnc3)c3ccc(Cl)c(Cl)c3n2)CCC1(C)C (centres unmarked) [I-587]
4.52 to 5.70	CCOC(=O)[C@@H]1CC[C@H](C)N1c1cc(-n2ccnc2)c2ccc(Cl)c(Cl)c2n1 [I-460]
4.52 to 5.70	O=C(O)CCO[C@@H]1CCN(c2cc(-n3ccnc3)c3ccc(Cl)c(Cl)c3n2)C1 [I-767]
4.52 to 5.70	CC(C)N(CCCOc1ccncc1C(=O)O)c1cc(-n2ccnc2)c2ccc(Cl)c(Cl)c2n1 [I-851]
> 5.70	O=C(O)c1ccn(CC[C@@H]2CCCN2c2cc(-n3ccnc3)c3ccc(Cl)c(Cl)c3n2)n1 [I-731]
